Experimental findings from publication PMC12801355, “Peptide Amphiphiles Hitchhike on Endogenous Biomolecules for Enhanced Cancer Imaging and Therapy” (Advanced Materials (Deerfield Beach, Fla.), 2025) are described below.

Where a SMILES comes first, the peptide text is derived from it. The star is where a group is joined. Palmitoyl = CCCCCCCCCCCCCCCC(=O)*

A short description of data set [1]: TEM imaging of PA nanostructures. It counts as physicochemical. Particulars: ICG conjugated PA, 200 µM in ultrapure water, uranyl acetate negative stain. Here is the method: For TEM imaging, PAs conjugated with ICG, Cy5 or MMAE were dissolved in ultrapure water at a concentration of 200 µM. Carbonfilm 200 copper mesh TEM grids were glow‐discharged first. Then, PA solutions (15 µL) were placed on the grids, incubated for 10 min before blotting, and air‐dried. 15 µL of ultrapure water was applied to wash the grid for 3 min. After incubation, the water was removed by blotting from the edge of the grid. For negative staining of the samples, a 0.4% uranyl acetate solution was prepared in ultrapure water and filtered using a 0.1 µm syringe filter. 15 µL of filtered uranyl acetate solution was applied to the grid and incubated for 5 min. Finally, TEM grids were blotted to remove excess stain and dried at room temperature. TEM imaging was performed using a Tecnai or Talos microscope (FEI).

Data set [2] in a line: Fluorescence polarization of PA nanostructures. It counts as physicochemical. To be noted: 10 mol% ICG conjugated PA (20 µM) with unconjugated PA, 200 µM total, PBS; mean ± SEM, 3 wells. As for the experimental part: ICG (10 mol%) containing PA micelles were prepared by mixing ICG‐conjugated PAs with unconjugated or MMAE‐conjugated PAs to achieve a final concentration of 20 µM ICG‐conjugated PAs and 200 µM of total PAs. Aliquots of 100 µL were added to a 96‐well plate (3 wells for each PA). Fluorescence polarization measurements were performed using a microplate reader (TECAN Spark 20 M). The corrected parallel intensity (I par) and perpendicular intensity (Iper) were used to calculate the fluorescence anisotropy (r) using the following equation: r = […].
On the technique in general: Fluorescence polarisation rises when a labelled molecule tumbles more slowly, as on binding a larger partner.

The nature of data set [3]: ICG fluorescence in fractions of collected blood (plasma, WBC, RBC). To be noted: mouse blood 1 h after 50 nmol IV; average. Type of data set: in vivo.
Method: For these experiments, 100 µL of ICG conjugated SA‐E (0.5 mM) was intravenously injected into wild type (C57Bl/6J), ApoA1 ‐/‐, or LDL‐R ‐/‐ mice. One hour after injection blood was collected via cardiac puncture (500 µL) in EDTA containing tubes (BD MicroTainer Blood Collection Tube, 365974). To separate plasma, blood samples were centrifuged for 10 min at 1500 g, and supernatants were removed. Samples were centrifuged again for 10 min at 2500 g, and supernatants were stored at −20 °C for up to 5 days before use. For RBCs, 10 µL of the centrifugation pellet was separated and stored at −20 °C for up to 5 days before analysis. For WBCs, 100 µL of the remaining pellet was collected and combined with 2 mL Red Blood Cell Lysis Buffer (BioLegend, 420514). This mixture was allowed to incubate at room temperature for 15 min with occasional mixing. The solution was then centrifuged at 500 g for 5 min, the supernatant was removed, and the pellet was redissolved in 30 µL PBS, then stored at −20 °C for up to 5 days. […] For fluorescence measurements, 5 µL of samples were added to a 96 well plate, diluted to a total volume of 100 µL with PBS, and fluorescence was measured using a microplate reader (Tecan Spark 20 M).
A short description of data set [4]: Blood circulation in mice. It counts as in vivo, mouse. Particulars: wild type mice, 50 nmol IV. Here is the method: For blood circulation experiments, Balb/c mice were injected with 100 µL of ICG conjugated PAs or No‐SA, or free ICG (0.5 mM). Then, blood was drawn via the saphenous vein or retro‐orbitally at different time points (immediately after injection to 1 day). […] Blood from wild type mice was collected to prepare calibration curves for each probe. To each 18 µL aliquot of blood, 2 µL of probe stock solution (0.5 mM) was added and incubated at 37 °C for 1 h. The spiked samples were then serially diluted in blood between 50 and 0.1 µM. For fluorescence measurement, 2 µL of each diluted sample was further diluted into 98 µL of PBS, and ICG fluorescence was measured using a TECAN plate reader.

Data set [5] concerns TRAMP‐C2 mouse prostate cancer cells. The data set can be described thus: Uptake of SA‐E by wild type or SR‐B1 knockout cells. Type of data set: cell-based. Particulars: Cy5 SA‐E 20 µM, 10% FBS DMEM. Here is the method:
For SR‐B1 studies, an equal number of wells in a black walled, glass bottom 96‐well plate were seeded with either wild type or SR‐B1‐/‐ TRAMP‐C2 cells and grown to near confluency, as above. The Cy5 conjugated SA‐E was diluted in 10% FBS containing DMEM and incubated at room temperature for 30 min. All media from the wells was aspirated. Four wells of each cell type received 100 µL aliquots with SA‐E (20 µM). The plate was incubated for 30 min, as above. Following the methods above, wells were washed with PBS, media was added, and the plate was returned to the incubator for 1 h. Finally, Hoechst staining and fluorescence imaging were performed using a Leica Thunder DMi8 fluorescent microscope, as described above.

The nature of data set [6]: Clearance study (urine and stool). Type of data set: in vivo, mouse. Particulars: 50 nmol IV. As for the experimental part: Six Balb/c mice were intravenously injected with 100 µL of either ICG‐conjugated SA‐E or PBS, with three mice in each group. Urine and stool samples were collected from each mouse at different time points up to 7 days. […] Urine from healthy Balb/c mice was collected and pooled to generate a calibration curve. Fluorescence of stool samples was detected using an IVIS (PerkinElmer).

Data set [7] can be described thus: Toxicity in mice. Type of data set: in vivo, mouse. Particulars: wild type mice, 200 nmol IV, 5 mice. As for the experimental part:
Wild type mice were injected intravenously with ICG conjugated SA‐E at 4 times the dose used previously for imaging (100 µL, 2 mM). 1 day later, blood was removed via cardiac puncture, placed into an EDTA tube, and then centrifuged at 1500 g for 10 min, then 2500 g for 10 min to obtain plasma. The plasma was analyzed for Aspartate Aminotransferase activity (AST) (Abcam, AB105135) and creatinine (Crystal Chem, 80350) following the manufacturer's protocol. For complete blood counts, whole blood (10 µL) was mixed with 2 mM EDTA (10 µL) and analyzed using the HemaVet 950S (Drew Scientific).

For data set [8], the system named is TRAMP‐C2 tumors. As to the kind of experiment: Tumor accumulation in wild type or SR‐B1‐/‐ tumors. To be noted: 50 nmol IV, 2 days. It counts as in vivo, mouse. Here is the method:
(§1) For tumor accumulation studies in subcutaneous (HCT‐116, A375, TRAMP‐C2, MC38, LLC1, RG2, PDX cell lines, wild type or SR‐B1 ‐/‐ TRAMP‐C2, and wild type or LDL‐R ‐/‐ HeLa), intradermal (A375), or fat pad (4T1 and MCF‐7) tumors, cells were implanted as described above. When the tumors reached a size around ≈0.3–1 cm, mice were injected intravenously with 100 µL of ICG conjugated PAs (in PBS, 0.5 mM) or free ICG (in PBS, 0.5 mM). After probe injections, mice were imaged using the IVIS Spectrum (PerkinElmer) with excitation and emission wavelengths of 745 and 820 nm, respectively, at the specified time points. Living Image (PerkinElmer) software was used for all analyses. For MMTV mice experiments, mice were injected intravenously weekly with SA‐E (100 µL PBS, 0.5 mM) between 71 and 85 days of age and imaged 2 days later in the IVIS. […] SA‐E was injected intravenously (100 µL PBS, 0.5 mM), 2 days later the intestinal tissue was harvested, washed, and analyzed in the IVIS for ICG.

Data set [9] relates to HeLa tumors. The data set can be described thus: Tumor accumulation in wild type or LDL‐R‐/‐ tumors. It counts as in vivo, mouse. To be noted: 50 nmol IV, 2 days. Here is the method:
as §1

In data set [10] the test system is xenograft, syngeneic, transgenic and PDX tumor models. The data set can be described thus: Tumor accumulation in a broad range of tumor models. It counts as in vivo, mouse. Particulars: 2 days after 50 nmol IV. Here is the method: as §1
Data set [11] concerns LPs (HDL, LDL, VLDL) and albumin in pooled human plasma.
Method: FPLC experiments were performed using SA‐E, SA‐K, or No‐SA conjugated with ICG or SA‐E conjugated with MMAE at a final concentration of 250 µM in filtered PBS (10 mM, pH 7.4) with or without human plasma or purified LPs or albumin. For analysis of SA‐E interactions with purified LPs, VLDL, LDL, HDL, and human serum albumin were diluted in filtered PBS to approximate concentrations found in 10% human plasma: 0.0025, 0.13, 0.05, and 5mg mL^−1, respectively. SA‐E was incubated with the purified LP/protein mixture for 30 min at 37 °C before injection. For analysis of plasma interactions, PAs or No‐SA were incubated in PBS containing 10% pooled human plasma for 30 min at 37 °C before injection. The total volume injected for all samples was 400 µL. All data was collected on an ÄKTA pure chromatography system using the following running conditions: size exclusion chromatography on a Superose 6 Increase 10/300 GL column with a column volume (CV) of 30 mL, pre‐column pressure limit of 5 MPa, delta‐column pressure limit of 2.6 MPa, flow rate of 0.75 mL min^−1, in 100% PBS. The sample running method included first an equilibration step before injection of the sample with 100% PBS for 0.5 CV, followed by sample application via 1 mL capillary loop in 100% PBS, and finished with a linear elution consisting of 2 CV collected in 1 mL fractions. The UV‐Vis detector wavelengths were 250, 280, and 700 nm to detect MMAE, all proteins/LPs, and ICG, respectively.

With `CCCCCCCCCCCCCCCC(=O)NCC(=O)NCC(=O)NCC(=O)N[C@@H](Cc1c[nH]cn1)C(=O)N[C@@H](C)C(=O)N[C@@H](C)C(=O)N[C@@H](CC(N)=O)C(=O)NCC(=O)N[C@@H](CCC(=O)O)C(=O)N[C@@H](CCC(=O)O)C(=O)N[C@@H](CS)C(=O)N[C@@H](CCC(=O)O)C(=O)O` [SA‐E] (Palmitoyl-GGGHAANGEECE-OH), in [1], the “size of spherical micelles (TEM)” value is listed as 5–10 nm. Moreover, the “fluorescence anisotropy of ICG in micelles” value in data set [2] is given as 0.123 ± 0.006. Further, the “share of fluorescence in blood plasma” value in data set [3] is 98.9%. Also, the “AUC of blood circulation plot relative to SA‐K” value in data set [4] is recorded as 2.1 fold. Moreover, the “uptake in SR‐B1‐/‐ cells compared to wild type” value in data set [5] was “did not observe any significant change”. Also, in data set [6] (any time point up to 7 days, plate reader), the “fluorescence in urine samples” value is reported as “No fluorescence signal was detected”. In addition, the “decline of ICG signal in stool” value in data set [6] (Balb/c mice, IVIS) is “mostly diminished at 2 days”. For the same molecule, the “time of peak ICG signal in stool” value in data set [6] (Balb/c mice, IVIS, n = 3) is given as 6 h. In data set [7] (1 day), the “Aspartate transferase (AST) versus control” value is “no difference” and the Creatinine versus control result is listed as “no difference”. Besides, in data set [7] (blood 1 day after injection), the “complete blood counts (CBC) versus control” value was “no difference”. The “tumor accumulation, SR‐B1 knockout versus wild type tumors” value in data set [8] is “not needed for tumor accumulation”. In addition, the “tumor accumulation, LDL‐R knockout versus wild type tumors” value in data set [9] was “not needed for tumor accumulation”. Further, the “tumor accumulation across models” value in data set [10] is listed as “highly specific tumor accumulation in all 13 tumor models”. Besides, in [11], the “amount bound to albumin, lower than bound to HDL” value is reported as “approximately two‐fold”.
